Calls of active or inactive are those of the source. No cut-off for these calls is given here. Where only a bound is given, the exact number is not on record here.

Assay [1] deals with T1, NAD-dependent protein deacetylase sirtuin-1 (Homo sapiens) (UniProt Q96EB6).
T1 sequence (whole entry): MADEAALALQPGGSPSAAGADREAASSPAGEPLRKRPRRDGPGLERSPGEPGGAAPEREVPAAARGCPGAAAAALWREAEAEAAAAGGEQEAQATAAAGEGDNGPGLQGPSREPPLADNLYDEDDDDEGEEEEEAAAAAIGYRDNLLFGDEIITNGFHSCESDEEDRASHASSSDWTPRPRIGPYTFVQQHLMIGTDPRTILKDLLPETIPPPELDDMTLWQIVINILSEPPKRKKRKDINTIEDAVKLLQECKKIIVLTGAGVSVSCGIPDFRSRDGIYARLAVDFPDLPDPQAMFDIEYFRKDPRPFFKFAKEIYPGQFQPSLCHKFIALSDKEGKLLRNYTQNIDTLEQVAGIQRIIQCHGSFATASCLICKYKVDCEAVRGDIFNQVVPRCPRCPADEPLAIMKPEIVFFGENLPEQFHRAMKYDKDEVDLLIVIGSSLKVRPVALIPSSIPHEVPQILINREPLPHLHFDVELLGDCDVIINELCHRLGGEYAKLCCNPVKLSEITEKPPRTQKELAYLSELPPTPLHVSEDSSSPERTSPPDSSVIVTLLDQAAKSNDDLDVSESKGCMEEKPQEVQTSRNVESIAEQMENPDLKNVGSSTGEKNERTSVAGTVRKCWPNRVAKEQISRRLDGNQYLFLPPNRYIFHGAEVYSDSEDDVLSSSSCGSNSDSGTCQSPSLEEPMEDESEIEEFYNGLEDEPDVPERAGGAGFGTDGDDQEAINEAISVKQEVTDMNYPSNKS
The assay is described as follows: Inhibition of recombinant human N-tagged GST-SIRT1 fusion protein using fluorescent ZMAL as substrate at 50 uM after 4 hrs by homogeneous fluorescent deacetylase assay.

For assay [2], the target named is T2, NAD-dependent protein deacetylase sirtuin-2 (Homo sapiens) (UniProt Q8IXJ6).
T2 sequence (whole entry): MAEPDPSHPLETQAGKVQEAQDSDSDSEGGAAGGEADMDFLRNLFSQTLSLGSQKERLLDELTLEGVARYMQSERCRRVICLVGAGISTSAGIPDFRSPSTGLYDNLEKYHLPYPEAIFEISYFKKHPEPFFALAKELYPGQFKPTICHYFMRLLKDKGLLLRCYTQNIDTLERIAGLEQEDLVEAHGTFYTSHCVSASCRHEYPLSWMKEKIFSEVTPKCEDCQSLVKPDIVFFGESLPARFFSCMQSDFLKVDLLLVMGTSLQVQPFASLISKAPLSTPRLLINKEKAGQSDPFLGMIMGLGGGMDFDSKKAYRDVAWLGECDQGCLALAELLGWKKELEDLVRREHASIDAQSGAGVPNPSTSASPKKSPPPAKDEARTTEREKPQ
Put plainly: Inhibition of recombinant human full length SIRT2 using fluorescent ZMAL as substrate at 50 uM after 4 hrs by homogeneous fluorescent deacetylase assay.

In assay [3] the target is T3, NAD-dependent protein deacetylase sirtuin-2 (Homo sapiens, UniProt Q8IXJ6).
T3 sequence (Q8IXJ6 whole entry): T2 sequence (whole entry)
The assay is described as follows: Inhibition of recombinant human full length SIRT2 using fluorescent ZMAL as substrate after 4 hrs by homogeneous fluorescent deacetylase assay.

Assay [4] concerns the target T1, NAD-dependent protein deacetylase sirtuin-1 (Homo sapiens). The assay is described as follows: Inhibition of recombinant human N-tagged GST-SIRT1 fusion protein using fluorescent ZMAL as substrate at 100 uM after 4 hrs by homogeneous fluorescent deacetylase assay.
Assay [5] relates to MCF7. The assay is described as follows: Cell cycle arrest in human MCF7 cells assessed as accumulation at sub-G1 phase at 50 uM after 24 hrs by flow cytometry (reference value: 0.3 %). The class given is functional.
Assay [6] concerns the target T1, NAD-dependent protein deacetylase sirtuin-1 (Homo sapiens). Put plainly: Inhibition of SIRT1 in human MCF7 cells assessed as increase in acetylation of p53 at lys 382 at 50 uM after 24 hrs by Western blot analysis. The class given is cell-based. (Immunoblotting shows a protein as a band on a membrane.)
Assay [7] relates to MCF7. The assay is described as follows: Cell cycle arrest in human MCF7 cells assessed as accumulation at S phase at 50 uM after 24 hrs by flow cytometry (reference value: 30.8 %). The format is functional. Background: In flow cytometry, cells or beads pass a laser one at a time.
For assay [8], the system named is MCF7. Put plainly: Antiproliferative activity against human MCF7 cells at 30 uM after 24 to 72 hrs. The format is functional.
For assay [9], the target named is T2, NAD-dependent protein deacetylase sirtuin-2 (Homo sapiens). The assay is described as follows: Inhibition of SIRT2 in human MCF7 cells assessed as increase in hyperacetylation of alpha-tubulin up to 50 uM after 24 hrs by Western blot analysis. The class given is cell-based.
Assay [10] relates to MCF7. The assay is described as follows: Cell cycle arrest in human MCF7 cells assessed as accumulation at G2-M phase at 50 uM after 24 hrs by flow cytometry (reference value: 22.6 %). The class given is functional.
Assay [11] concerns the target T1, NAD-dependent protein deacetylase sirtuin-1 (Homo sapiens). Put plainly: Inhibition of SIRT1 in human MCF7 cells assessed as increase in acetylation of H3-K9 up to 50 uM after 24 hrs by Western blot analysis. The format is cell-based.
Assay [12] deals with MCF7. The assay is described as follows: Cell cycle arrest in human MCF7 cells assessed as accumulation at G1 phase at 50 uM after 24 hrs by flow cytometry (reference value: 43.5 %). The format is functional.
Assay [13] deals with T4, NAD-dependent protein deacetylase sirtuin-1 (Homo sapiens, UniProt Q96EB6).
T4 sequence (Q96EB6 whole entry): T1 sequence (whole entry)
Description: Inhibition of recombinant human N-tagged GST-SIRT1 fusion protein using fluorescent ZMAL as substrate after 4 hrs by homogeneous fluorescent deacetylase assay

The species entered for assay [14] is Homo sapiens. The assay is described as follows: Selectivity ratio of IC50 for recombinant human N-tagged GST-SIRT1 fusion protein to IC50 for recombinant human full length SIRT2.
The target in assay [15] is T1, NAD-dependent protein deacetylase sirtuin-1 (Homo sapiens). The assay is described as follows: Inhibition of recombinant human N-tagged GST-SIRT1 fusion protein using fluorescent ZMAL as substrate at 500 uM after 4 hrs by homogeneous fluorescent deacetylase assay.
Assay [16] has as its target T2, NAD-dependent protein deacetylase sirtuin-2 (Homo sapiens). The assay is described as follows: Inhibition of SIRT2 in human MCF7 cells assessed as decrease in phosphorylation of pRB at Ser807/Ser811 at 50 uM after 24 hrs by Western blot analysis. The class given is cell-based.

One may read the inhibition as the percentage by which the read-out fell short of the control. With `NC(=O)c1ccc2c(c1)CCc1cc(N)ccc1N2`, the inhibition in [1] and in assay [2] was less than 25% in each case.
As for `OCc1ccc2c(c1)CCc1cccc(CO)c1N2`, the inhibition in assay [1] and in assay [2] was less than 25% in each case.
As to `NC(=O)c1ccc2c(c1)CCc1cc(Cl)ccc1N2`, the inhibition in assay [1] and in assay [2] was less than 25% in each case.
In the case of `NC(=O)c1ccc2c(c1)CCc1cc(C(N)=O)ccc1N2`, the inhibition in assay [1] and in assay [2] was less than 25% throughout.
For `NC(=O)c1cccc2c1Nc1ccccc1CC2`, the inhibition in assay [1] and in assay [2] was less than 25% throughout.
In the case of `OCc1ccc2c(c1)CCc1cc(CO)ccc1N2`, the inhibition in [1] and in [2] was less than 25% each time.
With `c1ccc2c(c1)CCc1ccccc1N2`, the inhibition in assay [1] and in assay [2] was less than 25% in each case.
As a reminder, the IC50 is the concentration at which inhibition is half-maximal. Turning to `CN1c2ccc(C(N)=O)cc2CCc2cc([N+](=O)[O-])ccc21`, the IC50 in [3] worked out at 77.5 µM. Further, the inhibition in assay [4] was 23%.
For the molecule `O=[N+]([O-])c1ccc2c(c1)CCc1ccccc1N2`, the inhibition in assay [1] and in assay [2] was less than 25% throughout.
In the case of `NC(=O)c1ccc2c(c1)CCc1cccc(CO)c1N2`, the inhibition in [1] and in [2] was less than 25% each time.
On to `N#Cc1ccc2c(c1)CCc1ccccc1N2`, for which the inhibition in [1] and in assay [2] was less than 25% throughout.
On to `N#Cc1ccc2c(c1)CCc1cc(C#N)ccc1N2`, for which the inhibition in assay [1] and in [2] was less than 25% in each case.
Regarding `CC(NC(=O)c1ccccc1/N=C/c1c(O)ccc2ccccc12)c1ccccc1` (stereo not drawn) [SIRTINOL], the Activity stood at 0.7% in assay [5], 9.7% in assay [7], 18% in assay [10] and 71.5% in [12]. Besides, the inhibition result in assay [6] is “Active”. The result in [8] was Active. Besides, the inhibition entry in assay [9] and in assay [11] was “inactive” in each case.
Consider `NC(=O)c1ccc2c(c1)CCc1cccc([N+](=O)[O-])c1N2`, for which the inhibition in assay [1] and in assay [2] was less than 25% in each case.
With `CC(C(=O)Nc1cccc(/N=C/c2c(O)ccc3ccccc23)c1)c1ccccc1` (stereo not drawn) [SALERMIDE], the Activity in assay [5] amounted to 1.1%; in assay [7], 16.4%; in assay [10], 26.4%; in [12] it was 56.1%. Further, the inhibition entry in [6] and in assay [9] was “Active” each time. Besides, the IC50 in assay [3] was 45 µM; in [13], 76 µM. Moreover, the result in assay [8] was Active. In [11], the inhibition result was “inactive”.
For `CC(C)(C)NC(=O)c1ccc2c(c1)CCc1ccccc1N2`, in assay [3], the 50% inhibitory concentration (IC50) stood at 100 µM. In addition, the inhibition in [1] is less than 25%.
For the molecule `NC(=O)N1c2ccccc2CCc2ccccc21`, the inhibition in [1] and in assay [2] was less than 25% each time.
Consider `O=[N+]([O-])c1ccc2c(c1)Nc1ccccc1CC2`, for which the inhibition in [1] and in [2] was less than 25% each time.
In the case of `NC(=O)C1CCCc2c1[nH]c1ccc(Cl)cc21` (stereo not drawn), the Activity in assay [5] turned out to be 1.2%; in assay [7] it was 10.3%; in assay [8] it was 50%; in assay [10], 15.7%; in [12] it was 73.8%.
As for `O=C(Nc1cccc(Br)c1)c1cccc(S(=O)(=O)N2CCCCCC2)c1`, the Activity is 0.4% in [5], 20% in [7], 25.3% in assay [10] and 54.3% in assay [12]. The inhibition result in assay [6] is “Active”. Further, the inhibition in assay [1] was less than 25%. The inhibition result in assay [11] was “inactive”.
In the case of `N#Cc1ccc2c(c1)CCc1cc([N+](=O)[O-])ccc1N2`, the inhibition in assay [1] and in [2] was less than 25% throughout.
As to `CC(C)(C)NS(=O)(=O)c1ccc2c(c1)Nc1ccccc1CC2`, the half-inhibitory concentration (IC50) in [3] was determined as 29.8 µM. The inhibition in assay [4] amounted to 12%.
Consider `N#Cc1ccc2c(c1)CCc1cc(C(N)=O)ccc1N2`, for which the inhibition in [1] and in [2] was less than 25% in each case.
With `NC(=O)c1ccc2c(c1)CCc1cc([N+](=O)[O-])ccc1N2`, the Activity is 0.9% in [5], 18% in assay [7], 38.9% in [10] and 42.2% in assay [12]. Further, the inhibition entry in [6] and in assay [11] was “inactive” in each case. In addition, the half-inhibitory concentration (IC50) in [3] stood at 17.6 µM. Besides, the Ratio IC50 in assay [14] is greater than 30. In addition, the result in assay [8] was Active. The inhibition was found to be 11% in assay [15] and 1% in [4]. The inhibition entry in assay [9] and in [16] was “Active” each time.
Consider `NC(=O)c1ccc2c(c1)CCc1ccccc1N2`, for which the inhibition in assay [1] and in [2] was less than 25% throughout.

The values above are taken from ChEMBL document CHEMBL3217443, “The Discovery of Novel 10,11-Dihydro-5H-dibenz[b,f]azepine SIRT2 Inhibitors” (Medchemcomm, 2012).
